# Test results: US7737288B2, “Non-steroidal androgen receptor modulators, preparation process, pharmaceutical composition and use thereof” (Shanghai Institute of Materia Medica Chinese Academy of …, priority 2005, dated 2010)
# Target: T1, androgen receptor (Homo sapiens, UniProt P10275)
# T1 construct: made in house; host or cells: insect cells (baculovirus expression system)
# T1 sequence (P10275 1-920): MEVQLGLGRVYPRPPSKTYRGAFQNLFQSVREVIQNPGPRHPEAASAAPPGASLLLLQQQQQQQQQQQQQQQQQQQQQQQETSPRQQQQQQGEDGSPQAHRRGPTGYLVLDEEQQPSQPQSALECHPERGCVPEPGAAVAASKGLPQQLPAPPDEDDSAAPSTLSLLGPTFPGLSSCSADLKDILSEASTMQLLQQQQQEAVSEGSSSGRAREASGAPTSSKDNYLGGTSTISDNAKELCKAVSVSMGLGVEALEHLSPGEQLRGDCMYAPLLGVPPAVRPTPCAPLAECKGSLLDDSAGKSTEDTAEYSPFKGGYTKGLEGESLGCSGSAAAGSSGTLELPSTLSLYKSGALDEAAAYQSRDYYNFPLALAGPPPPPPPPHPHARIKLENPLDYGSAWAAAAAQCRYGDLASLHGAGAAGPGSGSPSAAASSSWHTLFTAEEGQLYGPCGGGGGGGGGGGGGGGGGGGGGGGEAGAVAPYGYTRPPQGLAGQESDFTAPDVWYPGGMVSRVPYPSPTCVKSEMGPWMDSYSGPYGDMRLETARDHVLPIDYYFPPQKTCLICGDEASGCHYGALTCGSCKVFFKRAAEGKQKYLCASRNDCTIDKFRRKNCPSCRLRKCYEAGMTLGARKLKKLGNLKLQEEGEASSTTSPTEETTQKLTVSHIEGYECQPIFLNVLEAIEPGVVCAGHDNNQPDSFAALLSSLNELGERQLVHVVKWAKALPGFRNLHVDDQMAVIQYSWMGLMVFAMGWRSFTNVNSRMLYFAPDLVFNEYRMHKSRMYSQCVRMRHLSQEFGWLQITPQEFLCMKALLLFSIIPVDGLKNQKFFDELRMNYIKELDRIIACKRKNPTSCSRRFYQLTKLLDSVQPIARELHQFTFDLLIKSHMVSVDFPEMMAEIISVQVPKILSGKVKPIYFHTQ
# Assay: Test of receptor binding activity ([3H]DHT competition, hydroxyapatite)
# Conditions: Receptor binding (IC50, nM), competition with 5 nM [3H]DHT, overnight at 4° C.
# Procedure: Then the resultant mixture was added into the plates with a volume of 195 μl each well immediately after mixed thoroughly, and incubated overnight at 4° C. After the incubation was completed, 50 μl of hydroxyapatite (HA) solution (25% HA, 25 mM Na3PO4, pH7.4) was added to each well of the calandria, uniformly mixed by shaking, and incubated for 10 minutes, during the period it was shaken once every 3 minutes. The centrifugation was conducted at 2500 rpm for 3 minutes, the supernatant was sucked out, and the precipitate was reserved. Two hundred μl of the assay buffer was added into each well, the precipitate is avoided to be shaken as far as possible, and the centrifugation was conducted for 3 minutes again. The supernatant was sucked out, and the precipitate was reserved. The centrifugation was repeated once, the supernatant was sucked out, and the precipitate was reserved. 300 μl of scintillation fluid was added to each well.
row,SMILES,IC50
1,O=C(CC(Nc1ccc([N+](=O)[O-])c(C(F)(F)F)c1)c1ccccc1)c1ccc(Cl)cc1 (stereo not drawn) [MWW6016],9.49 nM

# Same assay, conditions: competition with 5 nM [3H]DHT, overnight at 4° C.; read-out: Receptor binding (IC50)
row,IC50,SMILES
1,2.85 nM,O=C(CC(Nc1ccc([N+](=O)[O-])cc1)c1ccccc1)c1ccc(Br)cc1 (stereo not drawn) [MWW6015]
2,2.93 nM,O=C(CC(Nc1ccc([N+](=O)[O-])cc1)c1ccccc1)c1ccc(Cl)cc1 (stereo not drawn) [MWW6003]
3,3.25 nM,O=C(CC(Nc1ccc(Cl)c([N+](=O)[O-])c1)c1ccco1)c1ccc(Cl)cc1 (stereo not drawn) [MWW6030]
4,6.45 nM,O=C(CC(Nc1ccc(Cl)c([N+](=O)[O-])c1)c1ccccc1)c1ccc(Cl)cc1 (stereo not drawn) [MWW6021]
5,4.31 nM,O=C(CC(Nc1ccc(Cl)c([N+](=O)[O-])c1)c1ccccc1)c1ccc(Br)cc1 (stereo not drawn) [MWW6022]
6,3.61 nM,O=C(CC(Nc1ccc(Cl)c([N+](=O)[O-])c1)c1ccco1)c1ccc(Br)cc1 (stereo not drawn) [MWW6031]
7,3.01 nM,O=C(CC(Nc1ccc([N+](=O)[O-])cc1)c1ccco1)c1ccc(Br)cc1 (stereo not drawn) [MWW6033]

# System: androgen receptor
# Assay: Test of reporter gene expression (luciferase) in transfected MDA-MB-453 cells
# Type: cell-based, human
# Conditions: not given
row,SMILES,"androgen receptor antagonistic activities, IC50 compared with bicalutamide"
1,O=C(CC(Nc1ccc([N+](=O)[O-])cc1)c1ccco1)c1ccc(Cl)cc1 (stereo not drawn) [MWW6032],close to the androgen receptor antagonist bicalutamide
2,O=C(CC(Nc1ccc([N+](=O)[O-])cc1)c1ccccc1)c1ccc(Cl)cc1 (stereo not drawn) [MWW6003],close to the androgen receptor antagonist bicalutamide

# System: LNCaP cells
# Assay: Test of prostate cancer cell proliferation induced by DHT (MTT)
# Type: cell-based
# Conditions: Homo sapiens, 144 h, read-out: IC50, inhibition of LNCaP cell proliferation stimulated by DHT
# Procedure: LNCaP cells were cultured in RPMI1640 medium containing 10% FBS and 2 mM L-glutamine. The above medium was replaced by RPMI1640 medium containing 5% CD-FBS one day before experiment. When the cells grew to 90% confluence, the cells were added to 96-well plate with 4000 cells/90 μL/well after dissociated with trypsin, and were cultured at 37° C. overnight. The compounds to be tested were added to the cells with 10 μL/well after diluted to certain concentrations. […]. […] MTT solution (5 mg/mL) was added with 20 μL/well before the culture was completed. Light absorption values at 560 nm were measured with the reference wavelength of 690 nm.
row,SMILES,IC50
1,O=C(CC(Nc1ccc([N+](=O)[O-])cc1)c1ccco1)c1ccc(Cl)cc1 (stereo not drawn) [MWW6032],2280 nM

# System: not given
# Assay: not given
# Conditions: not given
row,melting point,SMILES
1,208 to 210 °C,"Cc1ccc(C(=O)CC(Nc2ccc(C(=O)O)cc2)c2ccccc2)cc1 (stereo not drawn) [Example 4, 3-phenyl-3-(4-carboxylanilino)-1-(4-methylphenyl)-1-acetone]"
2,157 to 159 °C,"Cc1ccc(C(=O)CC(Nc2ccc([N+](=O)[O-])cc2)c2ccccc2)cc1 (stereo not drawn) [Example 3, 3-phenyl-3-(4-nitroanilino)-1-(4-methylphenyl)-1-acetone]"
3,152 to 154 °C,"Cc1ccc(C(=O)CC(Nc2ccc(Cl)cc2)c2ccccc2)cc1 (stereo not drawn) [Example 1, 3-phenyl-3-(4-chloroanilino)-1-(4-methylphenyl)-1-acetone]"
4,131 to 132 °C,"Cc1ccc(C(=O)CC(Nc2ccccc2)c2ccc(C)cc2)cc1 (stereo not drawn) [Example 5, 3-(4-methylphenyl)-3-anilino-1-(4-methylphenyl)-1-acetone]"
